Format in all cases: in vivo
For experiment [1], the system named is Puccinia recondita (PUCCRT). Description: Field assessment of brown rust of wheat (PUCCRT), relative AUDPC, 2 field trials. The note with it: based on AUDPC. The text has this:
(§1) Treatments consisting of the compound of Formula I and the fungicide picoxystrobin were applied either using individually or as a two-way mixture with the compound of Formula I. The compound of Formula I was applied with Agnique BP-420 (50% w/w at 0.3% v/v) at 75 and 150 g ai/ha and picoxystrobin (Acanto) was applied at 125 and 200 g ai/ha. The commercial standard used in the studies was Fluxapyroxad (Imtrex) and was applied at 100 g ai/ha.
Field Assessment of Puccinia recondita (PUCCRT) in Wheat:
Fungicidal treatment containing the compound of Formula I and picoxystrobin, either individually or as a two mixture, were assessed against brown rust of wheat (PUCCRT) in two separate field trials. In the first trial, fungicidal treatments were applied at B37-39 (protectant, approximately 0% infection at application) growth stage of wheat (TRZAW, MV Vanek variety) under natural infection of brown rust. The treatment was part of an experimental trial designed as a randomized complete block with four replications and a plot of approximately 2×3 m. Fungicidal treatments were applied at a water volume of 200 L/ha, using a backpack plot sprayer with a TEEJET QJ90-2XTT110 015 Nozzle.
In the second trial, fungicidal treatments containing the compound of Formula I and picoxystrobin, either individually or as a two way mixture, were applied at B33 (curative, approximately 6.6% infection at application) growth stage of wheat (TRZAW, Miradoux variety) under natural infection of brown rust. The treatments were part of an experimental trial designed as a randomized complete block with four replications and a plot of approximately 2×3 m. Fungicidal treatments were applied at a water volume of 200 L/ha, using a backpack plot sprayer with a HARDI MD110-02 Nozzle.
(§2) Disease severity (percentage of visual diseased foliage on whole plot or leaves) in both field trials was assessed at 5 weeks after application and was recorded following EPPO PP1/26 guideline prescriptions. Area under the disease progress curve (AUDPC) was calculated for each plot in both trials using the sets of recorded severity data. Relative AUDPC (% control based on AUDPC) was calculated as percent of the nontreated control. Final results for the control of brown rust of wheat by the compound of Formula I, picoxystrobin, and mixtures are reported as an average of the relative AUDPC calculated over both field trials. Statistical analysis was done according to ANOVA and Tukey's test (p=0.10).

The test system of experiment [2] is Rhynchosporium secalis (RHYNSE). Kind of experiment: Field assessment of scald of barley (RHYNSE), trials 2 and 3, relative AUDPC. The note with it: Trial 2, 3, based on AUDPC. An excerpt:
(§3) Field Assessment of Mixtures of the Compound of Formula I and Pyraclostrobin on Rhynchosporium secalis (RHYNSE) in Barley:
In the remaining trials, treatments consisting of the compound of Formula I and the fungicide pyraclostrobin were applied either using individually or as a two-way mixture with the compound of Formula I. […] Commercial standards used in these studies were SiltraXpro (200 g ai/L prothioconazole+60 g ai/ha bixafen) applied at 260 g ai/ha, and Opera (133 g/L pyraclostrobin+50 g/L epoxiconazole) applied at 220 g ai/ha. All treatments were part of an experimental trial designed as a randomized complete block with four replications.
(§4) Disease severity (percentage of visual diseased foliage on whole plot or leaves) in both trials was recorded following EPPO PP1/26 guideline prescriptions. Area under the disease progress curve (AUDPC) was calculated for each plot in both trials using the sets of recorded severity data. Relative AUDPC (% control based on AUDPC) was calculated as percent of the nontreated control. Final results for the control of scald of barley by the compound of Formula I, pyraclostrobin and mixtures are reported as an average of the relative AUDPC calculated over both field trials. Statistical analysis was done according to ANOVA and Tukey's test (p=0.10).

Experiment [3] has as its system Puccinia striiformis (PUCCST). Kind of experiment: Field assessment of yellow rust of wheat (PUCCST), relative AUDPC, 2 field trials. The note with it: based on AUDPC.
Excerpt: as §1
Field Assessment of Puccinia striiformis (PUCCST) in Wheat:
Fungicidal treatments containing the compound of Formula I and picoxystrobin, either individually or as a two way mixture, were assessed against yellow rust of wheat (PUCCST) in two separate field trials. […]
as §2, with “4-7” for “5”, “yellow” for “brown”, “Statistical analysis was done according to ANOVA and Tukey's test (p=0.10).” left out

In experiment [4] the test system is Rhynchosporium secalis (RHYNSE). Description: Field assessment of scald of barley (RHYNSE), trial 1, relative AUDPC. Conditions: Trial 1, based on AUDPC. Here is the method:
(§5) Commercial standards used in these studies were Proline 275 (275 g ai/L Prothioconazole), applied at 150 g ai/ha, and SiltraXpro (200 g ai/L prothioconazole+60 g ai/ha bixafen), applied at 195 g ai/ha.
as §3
Fungicidal treatments containing the compound of Formula I and fluxapyroxad, either individually or as a two-way mixture, were assessed against scald of barley (RHYNSE) in three field trials. In the first trial, fungicidal treatments were applied at B37-39 growth stages of winter barley (HORVW, Maris Otter variety) under natural infection of barley scald (protectant test, approximately 1% infection on leaf 4 at application). All treatments were part of an experimental trial designed as a randomized complete block with four replications.
Disease severity (percentage of visual diseased foliage on whole plot or leaves) in the first trial was recorded following EPPO PP1/26 guideline prescriptions. Area under the disease progress curve (AUDPC) was calculated for each plot in the trial using the sets of recorded severity data. Relative AUDPC (% control based on AUDPC) was calculated as percent of the nontreated control. […] Statistical analysis was done according to ANOVA and Tukey's test (p=0.10).

For experiment [5], the system named is Pyrenophora teres (PYRNTE). Description: Field assessment of net blotch of barley (PYRNTE), relative AUDPC. Conditions: based on AUDPC.
Excerpt: as §5
Field Assessment of Mixtures of the Compound of Formula I and Pyraclostrobin on Pyrenophora teres (PYRNTE) in Barley:
[…] […], fungicidal treatments were applied at B31-37 growth stages of winter barley and sprong barley (HORVW, Lomeritt variety; HORVS, Scarlett variety) under natural infection of net blotch (protectant tests, 1% infection on leaf 4 and 10% infection on leaf 6 at application). All treatments were part of an experimental trial designed as a randomized complete block with four replications.
[…] […] Relative AUDPC (% control based on AUDPC) was calculated as percent of the nontreated control. […] Statistical analysis was done according to ANOVA and Tukey's test (p=0.10).

The next experiment relates to Puccinia hordei (PUCCHD). Description: Field assessment of rust of barley (PUCCHD), relative AUDPC, 2 field trials. Conditions: based on AUDPC.
Excerpt: Treatments consisting of the compound of Formula I and the fungicide pyraclostrobin were applied either using individually or as a two-way mixture with the compound of Formula I. The compound of Formula I was applied with Agnique BP-420 (50% w/w at an active:adjuvant ratio of 1:2) at 75, 100 and 150 g ai/ha and with pyraclostrobin (Comet 200) at 100, 150 and 200 g ai/ha. Commercial standards used in these studies were Proline 275 (275 g ai/L Prothioconazole), applied at 150 g ai/ha, and SiltraXpro (200 g ai/L prothioconazole+60 g ai/ha bixafen), applied at 195 g ai/ha.
Field Assessment of Mixtures of the Compound of Formula I and Pyraclostrobin on Puccinia Hordie (PUCCHD) in Barley: […]
Fungicidal treatments containing the compound of Formula I and pyraclostrobin, either individually or as a two-way mixture, were assessed against rust of barley (PUCCHD) in two separate field trials. In both trials, fungicidal treatments were applied at B37-39 growth stages of winter barley (Lomeritt variety) under natural infection of barley rust. All treatments were part of an experimental trial designed as a randomized complete block with four replications.
as §4, with “in both field trials was” for “in both trials was”, “control of rust of barley” for “control of scald of barley”

This is an account of results in patent US20210282401A1, “FUNGICIDAL COMPOUNDS AND MIXTURES FOR FUNGAL CONTROL IN CEREALS” (Dow AgroSciences LLC, priority 2016, published 2021).

With `N#Cc1ccc(Oc2ccc(C(F)(F)C(O)(Cn3ncnc3S)c3ccc(F)cc3F)nc2)cc1` (stereo not drawn) [Compound I, 4-((6-(2-(2,4-difluorophenyl)-1,1-difluoro-2-hydroxy-3-(5-mercapto-1H-1,2,4-triazol-1-yl)propyl)pyridin-3-yl)oxy)benzonitrile], the “PUCCRT % Control” value in experiment [1] (75 g ai/ha) was determined as 90.7%; in experiment [1] (150 g ai/ha), 91.4%. Moreover, the figures for the “RHYNSE % Control” value in experiment [2] (80 g ai/ha) and in experiment [2] (125 g ai/ha) were 15.6% and 38.6%, respectively.

Consider `CO/C=C(/C(=O)OC)c1ccccc1COc1cccc(C(F)(F)F)n1` [Picoxystrobin, methyl (E)-3-methoxy-2-[2-(6-trifluoromethyl-2-pyridyloxymethyl)phenyl]acrylate], for which the “PUCCRT % Control” value came out at 64.6% in experiment [1] (125 g ai/ha) and 81.1% in experiment [1] (200 g ai/ha). The “PUCCST % Control” value was 34.6% in experiment [3] (125 g ai/ha) and 43.2% in experiment [3] (200 g ai/ha).

As to `COC(=O)N(OC)c1ccccc1COc1ccn(-c2ccc(Cl)cc2)n1` [Pyraclostrobin, methyl N-[2-[[[1-(4-chlorophenyl)-1H-pyrazol-3-yl]oxy]methyl]phenyl]-N-methoxycarbamate], the “RHYNSE % Control” value in experiment [4] (100 g ai/ha) was 41.2%; in experiment [4] (150 g ai/ha), 45.0%; in experiment [4] (200 g ai/ha), 47.8%; in experiment [2] (200 g ai/ha) it was 43.0%. Also, the “PYRNTE % Control” value in experiment [5] (100 g ai/ha) was determined as 46.5%; in experiment [5] (150 g ai/ha), 60.5%; in experiment [5] (200 g ai/ha), 69.8%. Besides, the figures for the “PUCCHD % Control” value in the experiment on Puccinia hordei (PUCCHD) (100 g ai/ha), in the experiment on Puccinia hordei (PUCCHD) (150 g ai/ha) and with Puccinia hordei (PUCCHD) (200 g ai/ha) were 63.3%, 64.4% and 78.7%, respectively.
